Assay [1] concerns the target T1, Myotonin-protein kinase (Homo sapiens) (UniProt Q09013).
T1 sequence (whole entry): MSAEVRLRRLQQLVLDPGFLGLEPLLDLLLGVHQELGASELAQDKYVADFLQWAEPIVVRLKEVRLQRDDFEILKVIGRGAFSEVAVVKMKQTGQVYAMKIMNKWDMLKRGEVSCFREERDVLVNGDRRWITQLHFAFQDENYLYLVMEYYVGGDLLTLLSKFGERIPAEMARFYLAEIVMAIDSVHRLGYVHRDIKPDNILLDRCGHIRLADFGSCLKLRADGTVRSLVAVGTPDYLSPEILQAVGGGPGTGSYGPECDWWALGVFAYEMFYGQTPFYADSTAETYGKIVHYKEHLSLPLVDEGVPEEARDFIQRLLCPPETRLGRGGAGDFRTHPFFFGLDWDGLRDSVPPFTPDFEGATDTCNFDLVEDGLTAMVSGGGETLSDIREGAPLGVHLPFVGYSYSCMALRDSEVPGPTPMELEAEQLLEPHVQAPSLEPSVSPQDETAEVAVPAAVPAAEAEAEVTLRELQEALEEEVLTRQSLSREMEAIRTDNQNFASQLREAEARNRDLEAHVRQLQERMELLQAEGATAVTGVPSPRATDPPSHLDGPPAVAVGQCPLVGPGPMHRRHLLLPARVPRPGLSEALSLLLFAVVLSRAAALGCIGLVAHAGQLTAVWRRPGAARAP
In words: Selectivity interaction (ProQinase) EUB0000171b DMPK.

For assay [2], the target named is T2, Activin receptor type-1B (Homo sapiens) (UniProt P36896).
T2 sequence (whole entry): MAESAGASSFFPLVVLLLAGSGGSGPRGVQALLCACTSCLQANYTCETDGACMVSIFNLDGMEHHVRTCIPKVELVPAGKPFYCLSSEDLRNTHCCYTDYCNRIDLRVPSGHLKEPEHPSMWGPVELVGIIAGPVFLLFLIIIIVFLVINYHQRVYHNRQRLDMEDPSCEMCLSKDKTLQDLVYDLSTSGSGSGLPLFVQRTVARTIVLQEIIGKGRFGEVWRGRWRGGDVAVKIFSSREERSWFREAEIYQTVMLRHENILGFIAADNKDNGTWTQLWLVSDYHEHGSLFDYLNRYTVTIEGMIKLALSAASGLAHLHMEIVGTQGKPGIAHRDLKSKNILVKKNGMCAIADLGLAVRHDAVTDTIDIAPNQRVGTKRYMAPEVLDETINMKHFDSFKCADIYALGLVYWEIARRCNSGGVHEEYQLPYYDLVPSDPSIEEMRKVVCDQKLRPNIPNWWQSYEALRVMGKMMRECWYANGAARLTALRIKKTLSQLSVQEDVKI
In words: Selectivity interaction (KinomeScan (DiscoverX)) EUB0000092b ACVR1B. The note with it: at 10 µM.

Assay [3] concerns the target T3, Cyclin-dependent kinase-like 5 (Homo sapiens) (UniProt O76039).
T3 sequence (whole entry): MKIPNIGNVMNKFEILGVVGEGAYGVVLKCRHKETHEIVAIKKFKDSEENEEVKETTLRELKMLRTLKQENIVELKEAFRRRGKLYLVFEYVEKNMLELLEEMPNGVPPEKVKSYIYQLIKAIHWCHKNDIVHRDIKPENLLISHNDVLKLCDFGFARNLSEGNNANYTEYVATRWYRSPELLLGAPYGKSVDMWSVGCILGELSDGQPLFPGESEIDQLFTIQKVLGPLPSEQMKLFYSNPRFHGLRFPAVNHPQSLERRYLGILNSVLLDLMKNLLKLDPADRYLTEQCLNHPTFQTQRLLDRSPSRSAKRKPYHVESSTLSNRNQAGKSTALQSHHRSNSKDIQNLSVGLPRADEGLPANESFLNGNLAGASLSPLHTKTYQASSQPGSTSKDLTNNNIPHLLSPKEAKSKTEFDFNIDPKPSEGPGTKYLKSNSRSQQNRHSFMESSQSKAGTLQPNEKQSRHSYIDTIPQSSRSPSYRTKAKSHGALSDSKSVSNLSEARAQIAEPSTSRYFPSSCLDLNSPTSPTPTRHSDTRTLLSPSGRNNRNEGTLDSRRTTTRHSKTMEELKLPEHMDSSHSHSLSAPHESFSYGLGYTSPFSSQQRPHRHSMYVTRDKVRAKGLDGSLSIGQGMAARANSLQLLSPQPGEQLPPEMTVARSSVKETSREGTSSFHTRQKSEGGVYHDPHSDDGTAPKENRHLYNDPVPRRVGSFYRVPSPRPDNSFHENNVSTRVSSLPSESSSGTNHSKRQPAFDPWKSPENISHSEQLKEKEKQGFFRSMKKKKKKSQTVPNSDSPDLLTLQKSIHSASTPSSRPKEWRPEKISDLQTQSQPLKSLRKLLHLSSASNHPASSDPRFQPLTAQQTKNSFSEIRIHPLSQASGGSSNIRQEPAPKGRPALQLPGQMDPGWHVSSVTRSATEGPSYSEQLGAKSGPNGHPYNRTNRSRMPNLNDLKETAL
In words: Selectivity interaction (KinomeScan (DiscoverX)) EUB0000045b CDKL5.

Assay [4] has as its target Ribosomal protein S6 kinase alpha-6 (Homo sapiens, UniProt Q9UK32). In words: Selectivity interaction (KinomeScan (DiscoverX)) EUB0000607a RPS6KA6. The note with it: at 10 µM.
In assay [5] the target is Tyrosine-protein kinase Fer (Homo sapiens) (UniProt P16591). In words: Selectivity interaction (KinomeScan (DiscoverX)) EUB0000229b FER. The note with it: at 10 µM.
Tyrosine-protein kinase Fer (Homo sapiens), sequence (P16591 whole entry, looked up): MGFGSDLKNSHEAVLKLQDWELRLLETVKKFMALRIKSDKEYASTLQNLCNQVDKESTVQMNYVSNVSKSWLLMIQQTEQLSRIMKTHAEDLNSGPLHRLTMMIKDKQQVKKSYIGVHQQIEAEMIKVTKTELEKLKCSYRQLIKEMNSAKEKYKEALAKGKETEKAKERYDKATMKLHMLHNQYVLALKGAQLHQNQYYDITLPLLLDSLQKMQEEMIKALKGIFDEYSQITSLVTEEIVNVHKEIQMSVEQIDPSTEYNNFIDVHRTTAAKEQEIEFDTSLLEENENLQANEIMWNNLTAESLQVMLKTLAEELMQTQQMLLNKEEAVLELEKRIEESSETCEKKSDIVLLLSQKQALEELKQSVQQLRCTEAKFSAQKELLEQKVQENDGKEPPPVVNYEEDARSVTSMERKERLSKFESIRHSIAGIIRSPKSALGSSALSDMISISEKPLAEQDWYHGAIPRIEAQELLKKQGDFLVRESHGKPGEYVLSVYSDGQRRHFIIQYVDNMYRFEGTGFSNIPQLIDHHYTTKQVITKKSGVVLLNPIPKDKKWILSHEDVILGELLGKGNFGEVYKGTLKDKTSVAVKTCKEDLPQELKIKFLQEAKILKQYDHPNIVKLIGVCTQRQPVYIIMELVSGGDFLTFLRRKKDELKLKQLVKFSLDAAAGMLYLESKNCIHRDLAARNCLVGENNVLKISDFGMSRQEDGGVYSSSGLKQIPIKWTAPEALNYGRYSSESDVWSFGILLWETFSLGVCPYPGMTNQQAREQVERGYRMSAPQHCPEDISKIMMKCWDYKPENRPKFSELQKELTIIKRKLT
In assay [6] the target is T4, Serine/threonine-protein kinase Nek5 (Homo sapiens) (UniProt Q6P3R8).
T4 sequence (whole entry): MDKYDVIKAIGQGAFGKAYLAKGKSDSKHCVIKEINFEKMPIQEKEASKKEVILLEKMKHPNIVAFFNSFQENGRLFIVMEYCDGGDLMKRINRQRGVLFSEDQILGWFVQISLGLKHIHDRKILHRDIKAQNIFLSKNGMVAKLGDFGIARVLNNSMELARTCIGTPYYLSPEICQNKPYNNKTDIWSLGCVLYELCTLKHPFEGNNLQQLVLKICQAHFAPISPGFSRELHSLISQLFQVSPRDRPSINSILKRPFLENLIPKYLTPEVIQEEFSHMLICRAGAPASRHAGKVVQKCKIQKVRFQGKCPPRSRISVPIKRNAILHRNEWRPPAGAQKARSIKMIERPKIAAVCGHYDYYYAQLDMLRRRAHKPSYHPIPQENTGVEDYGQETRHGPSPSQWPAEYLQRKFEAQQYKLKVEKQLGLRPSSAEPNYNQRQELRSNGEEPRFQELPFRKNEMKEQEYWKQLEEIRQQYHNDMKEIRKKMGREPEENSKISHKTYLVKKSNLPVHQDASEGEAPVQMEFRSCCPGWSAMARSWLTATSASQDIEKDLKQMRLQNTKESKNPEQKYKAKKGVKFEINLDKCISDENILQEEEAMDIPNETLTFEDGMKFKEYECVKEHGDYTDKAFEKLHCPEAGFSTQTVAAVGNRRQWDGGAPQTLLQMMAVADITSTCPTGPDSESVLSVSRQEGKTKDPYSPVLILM
In words: Selectivity interaction (KinomeScan (DiscoverX)) EUB0000229b NEK5. The note with it: at 10 µM.

Each structure is given as a SMILES string.

Ribosomal protein S6 kinase alpha-6, sequence (Q9UK32 whole entry): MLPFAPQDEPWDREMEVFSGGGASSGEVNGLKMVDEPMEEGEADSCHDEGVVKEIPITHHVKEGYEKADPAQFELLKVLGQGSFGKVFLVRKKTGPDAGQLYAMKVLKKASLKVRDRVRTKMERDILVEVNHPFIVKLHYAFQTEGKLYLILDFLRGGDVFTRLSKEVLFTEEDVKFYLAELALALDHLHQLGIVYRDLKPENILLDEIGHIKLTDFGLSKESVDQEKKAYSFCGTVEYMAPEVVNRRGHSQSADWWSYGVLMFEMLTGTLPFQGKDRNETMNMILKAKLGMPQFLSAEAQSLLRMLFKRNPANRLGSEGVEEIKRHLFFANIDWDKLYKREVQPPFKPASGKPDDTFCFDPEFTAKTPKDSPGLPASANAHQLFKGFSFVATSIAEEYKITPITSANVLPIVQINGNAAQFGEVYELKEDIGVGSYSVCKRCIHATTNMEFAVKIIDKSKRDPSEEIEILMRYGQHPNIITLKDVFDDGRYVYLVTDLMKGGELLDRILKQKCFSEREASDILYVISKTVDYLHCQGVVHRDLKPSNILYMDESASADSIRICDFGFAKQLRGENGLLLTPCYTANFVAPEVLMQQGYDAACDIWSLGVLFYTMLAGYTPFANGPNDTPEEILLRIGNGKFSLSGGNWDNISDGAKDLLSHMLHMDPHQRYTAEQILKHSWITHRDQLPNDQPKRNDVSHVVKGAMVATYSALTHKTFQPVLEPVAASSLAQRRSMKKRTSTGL

Regarding `C=CC(=O)Nc1cccc(C(=O)Nc2ccc(Nc3cc(-c4[nH]c(SC)nc4C)ccn3)cc2)c1`, the % of control was found to be 97% in assay [1] (at 1 µM) and 92% in assay [1] (at 5 µM).
In assay [2], `CCC(=O)N1CCN(c2ccc(-n3c(=O)ccc4cnc5ccc(-c6cnc7ccccc7c6)cc5c43)cc2C(F)(F)F)CC1` had a % of control of 45%.
Regarding `C=CC(=O)Nc1cc(-n2c(=O)ccc3cnc4ccc(-c5ccc(NS(C)(=O)=O)cc5)cc4c32)ccc1C`, the results for the % of control in assay [3] (at 1 µM) and in assay [3] (at 10 µM) were 100% and 81%, respectively.
On to `CNC(=O)Nc1ccc(-c2nc(N3CC4CCC(C3)O4)c3cnn(C4CCC5(CC4)OCCO5)c3n2)cc1`, for which, in assay [4], the % of control came out at 84%.
In the case of `COc1cc(N(C)c2ccnc3ccc(C(F)(F)F)cc23)cc(OC)c1OC`, the % binding stood at 95% in assay [5] and 93% in assay [6].

Source of the values: ChEMBL document CHEMBL5465560, “Selectivity Literature for EUbOPEN Chemogenomic Library” (2024).
